Assay results reported in BindingDB's records for PubMed 7562497 (R. W. Johnson Pharmaceutical Research Institute, 1995).
“And” between values parts separate entries of the source, which are not always exact repeats. Equal values may be shown once.

Key:
[1] = molecular target: Norepinephrine transporter (Rattus norvegicus, UniProt Q9JIA2)
[2] = molecular target: Sodium-dependent serotonin transporter (Rattus norvegicus, UniProt P31652)
[3] = molecular target: Kappa-type opioid receptor (Rattus norvegicus, UniProt P34975)
Chain of Kappa-type opioid receptor (P34975 whole entry): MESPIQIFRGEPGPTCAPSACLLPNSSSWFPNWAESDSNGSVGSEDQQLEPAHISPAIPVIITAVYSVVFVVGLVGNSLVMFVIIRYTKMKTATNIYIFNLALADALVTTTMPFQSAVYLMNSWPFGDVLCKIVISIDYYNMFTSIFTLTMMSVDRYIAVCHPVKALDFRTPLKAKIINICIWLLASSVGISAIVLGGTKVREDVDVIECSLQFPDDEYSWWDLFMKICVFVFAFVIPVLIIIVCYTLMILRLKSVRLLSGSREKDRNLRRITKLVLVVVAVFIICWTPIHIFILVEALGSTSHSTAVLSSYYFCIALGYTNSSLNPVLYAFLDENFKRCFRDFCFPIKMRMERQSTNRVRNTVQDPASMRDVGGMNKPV

Mu-type opioid receptor = Mu-type opioid receptor (Rattus norvegicus, UniProt P33535)
Chain of Mu-type opioid receptor (P33535 whole entry): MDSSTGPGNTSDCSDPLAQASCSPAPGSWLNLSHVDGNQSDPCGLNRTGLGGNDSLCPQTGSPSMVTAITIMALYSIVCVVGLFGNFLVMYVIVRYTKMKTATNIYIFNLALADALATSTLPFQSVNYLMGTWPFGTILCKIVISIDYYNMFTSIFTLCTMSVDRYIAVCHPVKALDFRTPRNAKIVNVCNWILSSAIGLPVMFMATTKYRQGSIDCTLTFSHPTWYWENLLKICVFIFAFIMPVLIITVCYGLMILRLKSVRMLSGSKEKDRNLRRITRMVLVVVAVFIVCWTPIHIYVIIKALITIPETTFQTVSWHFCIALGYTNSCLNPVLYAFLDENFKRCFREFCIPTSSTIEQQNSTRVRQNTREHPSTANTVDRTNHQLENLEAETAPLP

Chain of Sodium-dependent serotonin transporter (P31652 whole entry): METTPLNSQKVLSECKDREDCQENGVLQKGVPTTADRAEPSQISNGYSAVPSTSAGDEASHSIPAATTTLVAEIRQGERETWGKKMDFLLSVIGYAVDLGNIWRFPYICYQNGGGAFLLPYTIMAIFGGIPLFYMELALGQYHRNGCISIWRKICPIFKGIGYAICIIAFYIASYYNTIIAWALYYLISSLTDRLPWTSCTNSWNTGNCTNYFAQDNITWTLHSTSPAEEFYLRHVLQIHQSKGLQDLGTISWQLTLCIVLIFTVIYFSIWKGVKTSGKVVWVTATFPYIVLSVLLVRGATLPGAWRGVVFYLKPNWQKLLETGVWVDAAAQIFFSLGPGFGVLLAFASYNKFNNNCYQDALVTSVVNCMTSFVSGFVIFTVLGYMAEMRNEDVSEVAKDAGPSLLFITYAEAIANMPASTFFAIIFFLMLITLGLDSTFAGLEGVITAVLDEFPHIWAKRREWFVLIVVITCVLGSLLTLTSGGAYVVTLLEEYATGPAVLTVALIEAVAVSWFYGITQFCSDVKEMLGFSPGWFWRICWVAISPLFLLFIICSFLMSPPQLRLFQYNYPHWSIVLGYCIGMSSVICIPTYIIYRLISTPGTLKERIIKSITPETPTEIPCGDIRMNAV

| Structure (SMILES) | Ki [1] | Ki [2] | Ki [3] | Ki (Mu-type opioid receptor) |
| --- | --- | --- | --- | --- |
| CCC(OC(C)=O)C(CC(C)N(C)C)(c1ccccc1)c1ccccc1 (stereo not drawn) | > 10000 nM |  |  |  |
| CN1CCC23CCCCC2C1Cc1ccc(O)cc13 (stereo not drawn) [17-methyl-17-azatetracyclo[7.5.3.0^{1,10}.0^{2,7}]heptadeca-2(7),3,5-trien-4-ol] | 340 nM and 1210 nM | 401 nM and 86.3 nM |  |  |
| O=C1CC[C@@]2(O)[C@H]3Cc4ccc(O)c5c4[C@@]2(CCN3CC2CC2)[C@H]1O5 [(1S,5R,13R,17S)-4-(cyclopropylmethyl)-10,17-dihydroxy-12-oxa-4-azapentacyclo[9.6.1.0^{1,13}.0^{5,17}.0^{7,18}]octadeca-7(18),8,10-trien-14-one] | > 10000 nM | > 10000 nM |  |  |
| CC1(C)SSC(C)(C)[C@@H](NC(=O)[C@@H](N)Cc2ccc(O)cc2)C(=O)NCC(=O)N[C@@H](Cc2ccccc2)C(=O)N[C@H]1C(=O)O [(4S,7S,13S)-13-[(2S)-2-amino-3-(4-hydroxyphenyl)propanamido]-7-benzyl-3,3,14,14-tetramethyl-6,9,12-trioxo-1,2-dithia-5,8,11-triazacyclotetradecane-4-carboxylic acid] | > 10000 nM | > 10000 nM | > 10000 nM |  |
| CO[C@@]12CC[C@@]3(C[C@@H]1[C@@](C)(O)C(C)(C)C)[C@H]1Cc4ccc(O)c5c4[C@@]3(CCN1CC1CC1)[C@H]2O5 [BUPRENORPHINE] | > 10000 nM | > 10000 nM |  |  |
| COc1ccc2c3c1OC1C(O[Si](C)(C)C)C=CC4C(C2)N(C)CCC341 (stereo not drawn) [CAS_553916] | > 10000 nM | > 10000 nM | 501 nM | 11.1 nM |
| C=CCN1CC[C@]23CCCCC2[C@H]1Cc1ccc(O)cc13 (stereo partly drawn) [Levallorphan] |  | > 10000 nM and 7950 nM |  |  |
| COc1ccc2c(c1)C13CCCCC1C(C2)N(C)CC3 (stereo not drawn) [Levomethorpan] | 240 nM and 179 nM |  |  |  |
| c1cc2c(c(NC3=NCCN3)c1)CCCC2 [NSC_19472] | 785 nM and 2510 nM and 432 nM | 992 nM and 528 nM and 2350 nM | > 10000 nM | 2120 nM and 1330 nM and > 10000 nM |
| COc1ccc2c3c1OC1C(O)C=CC4C(C2)N(C)CCC341 (stereo not drawn) [NSC_223652] | > 10000 nM | > 10000 nM |  |  |
| COc1ccc2c3c1O[C@H]1C(=O)CCC4(O)[C@@H](C2)N(C)CC[C@]314 (stereo partly drawn) [Oxycodone] | > 10000 nM | > 10000 nM |  |  |
| CCC(=O)O[C@](Cc1ccccc1)(c1ccccc1)[C@H](C)CN(C)C [PROPOXYPHENE] | > 10000 nM | > 10000 nM | 1220 nM | 34.5 nM |
| C=CCN1CC[C@]23c4c5ccc(O)c4O[C@H]2C(=O)CC[C@@]3(O)[C@H]1C5 [[17-(2,3-3H-2-propenyl)]-4,5a-epoxy-3,14-dihydroxymorphinan-6-one] | > 10000 nM | > 10000 nM |  |  |
| C[C@@H](NC(=O)[C@@H](N)Cc1ccc(O)cc1)C(=O)NCC(=O)N(C)[C@@H](Cc1ccccc1)C(=O)NCCO [[tyrosyl-3,5-3H(N)]-D-Ala2-Mephe4-glyol5-enkephalin] | > 10000 nM | > 10000 nM | 210 nM |  |
